Measurements reported in patent US20200390793A1, “COMPOSITIONS AND METHODS USING OLEUROPEIN OR CURCUMIN FOR MUSCLE QUALITY AND/OR MUSCLE MASS” (SOCIETE DES PRODUITS NESTLE S.A., priority 2017, published 2020).

System: old rats
Experiment: Dietary polyphenol supplementation for 3 months in 20 months-old rats: muscle mass and muscle fiber area (immunofluorescence staining and microscopy)
Assay type: in vivo
Conditions: supplemented diet for 3 months, compared with control and rutin groups
From the text: 20 months-old rats were fed either a control diet or the same diet supplemented with curcumin or rutin or oleuropein for 3 months. CON=control diet, RUT=control diet with rutin, OLE=control diet with oleuropein and CUR=control diet with curcumin. Old rats are a good model to assess the effect of nutritional intervention in age related muscle decline. With this model, it can be observed as in human a decrease in muscle mass and function and a change in muscle quality with age. The objective of the study was to determine the effects of curcumin, oleuropein and rutin on muscle quality in old rats and the association with muscle mass. 20 months-old rats have been divided in four groups and received a complete diet supplemented with either curcumin (CUR), oleuropein (OLE) or rutin (RUT) for 3 months. A control group (CON) received cellulose instead of polyphenols. Fiber type was analyzed in muscle by immunofluorescence staining and microscopy. Exact Wilcoxon test associated with Hodges-Lehmann to estimate the difference between groups and Kolmogorov-Smirnov test to assess the difference for the distribution have been performed for statistical analysis.

With `COc1cc(/C=C/C(=O)CC(=O)/C=C/c2ccc(O)c(OC)c2)ccc1O` [CUR, curcumin] the “amount of small fibers area (percentage of cells with an area below 700 μm^2, FIG. 3B)” value was “lower”, the “fiber crossectionnal area (FIG. 3A)” value was “higher” and the muscle mass was “higher”.
